NS(=O)(=O)c1ccccc1
Settings	solubility (mole fraction)
in acetone, 273.15 K	0.117
in acetone, 279.15 K	0.123
in acetone, 283.45 K	0.13
in acetone, 288.95 K	0.138
in acetone, 293.25 K	0.145
in acetone, 298.85 K	0.156
in acetone, 303.15 K	0.165
in acetone, 308.15 K	0.176
in acetone, 313.15 K	0.188
in acetone, 317.65 K	0.201
in acetone, 323.15 K	0.217
in acetonitrile, 273.15 K	0.0348
in acetonitrile, 279.15 K	0.0396
in acetonitrile, 283.45 K	0.0446
in acetonitrile, 288.95 K	0.0507
in acetonitrile, 293.25 K	0.0568
in acetonitrile, 298.85 K	0.0649
in acetonitrile, 303.15 K	0.0723
in acetonitrile, 308.15 K	0.0817
in acetonitrile, 313.15 K	0.0928
in acetonitrile, 317.65 K	0.104
in acetonitrile, 323.15 K	0.118
in cyclohexanone, 273.15 K	0.114
in cyclohexanone, 279.15 K	0.12
in cyclohexanone, 283.85 K	0.126
in cyclohexanone, 289.15 K	0.134
in cyclohexanone, 293.75 K	0.142
in cyclohexanone, 299.15 K	0.151
in cyclohexanone, 303.75 K	0.161
in cyclohexanone, 309.15 K	0.171
in cyclohexanone, 313.35 K	0.181
in cyclohexanone, 319.15 K	0.195
in cyclohexanone, 324.45 K	0.21
in cyclopentanone, 273.15 K	0.14
in cyclopentanone, 279.15 K	0.146
in cyclopentanone, 283.85 K	0.152
in cyclopentanone, 289.15 K	0.16
in cyclopentanone, 293.75 K	0.167
in cyclopentanone, 299.15 K	0.177
in cyclopentanone, 303.75 K	0.187
in cyclopentanone, 309.15 K	0.201
in cyclopentanone, 313.35 K	0.21
in cyclopentanone, 319.15 K	0.228
in cyclopentanone, 324.45 K	0.245
in dichloromethane, 273.15 K	0.00134
in dichloromethane, 279.15 K	0.00175
in dichloromethane, 283.45 K	0.00214
in dichloromethane, 288.95 K	0.00278
in dichloromethane, 293.25 K	0.00335
in dichloromethane, 298.85 K	0.00424
in dichloromethane, 303.15 K	0.00495
in dichloromethane, 308.15 K	0.00602
in dichloromethane, 312.15 K	0.00691
in ethanol, 273.15 K	0.0159
in ethanol, 279.15 K	0.0182
in ethanol, 283.45 K	0.0199
in ethanol, 288.95 K	0.0231
in ethanol, 293.25 K	0.0261
in ethanol, 298.85 K	0.0307
in ethanol, 303.15 K	0.0355
in ethanol, 308.15 K	0.041
in ethanol, 313.15 K	0.048
in ethanol, 317.65 K	0.0547
in ethanol, 323.15 K	0.0635
in ethyl acetate, 273.15 K	0.0325
in ethyl acetate, 279.15 K	0.036
in ethyl acetate, 283.45 K	0.0389
in ethyl acetate, 288.95 K	0.0429
in ethyl acetate, 293.25 K	0.0467
in ethyl acetate, 298.85 K	0.0517
in ethyl acetate, 303.15 K	0.0563
in ethyl acetate, 308.15 K	0.0615
in ethyl acetate, 313.15 K	0.0682
in ethyl acetate, 317.65 K	0.0736
in ethyl acetate, 323.15 K	0.082
in ethyl formate, 273.15 K	0.018
in ethyl formate, 279.15 K	0.0204
in ethyl formate, 283.45 K	0.0228
in ethyl formate, 288.95 K	0.026
in ethyl formate, 293.25 K	0.0289
in ethyl formate, 298.85 K	0.0327
in ethyl formate, 303.15 K	0.0367
in ethyl formate, 308.15 K	0.0416
in ethyl formate, 313.15 K	0.047
in ethyl formate, 317.65 K	0.0526
in ethyl formate, 323.15 K	0.0596
in isobutanol, 273.15 K	0.00387
in isobutanol, 279.15 K	0.0045
in isobutanol, 283.85 K	0.00537
in isobutanol, 289.15 K	0.00666
in isobutanol, 293.75 K	0.00808
in isobutanol, 299.15 K	0.00996
in isobutanol, 303.75 K	0.012
in isobutanol, 309.15 K	0.0148
in isobutanol, 313.35 K	0.0176
in isobutanol, 319.15 K	0.0214
in isobutanol, 324.45 K	0.0255
in isopentanol, 273.15 K	0.00419
in isopentanol, 279.15 K	0.00488
in isopentanol, 283.85 K	0.00557
in isopentanol, 289.15 K	0.00683
in isopentanol, 293.75 K	0.00804
in isopentanol, 299.15 K	0.00999
in isopentanol, 303.75 K	0.0119
in isopentanol, 309.15 K	0.0148
in isopentanol, 313.35 K	0.0172
in isopentanol, 319.15 K	0.021
in isopentanol, 324.45 K	0.0249
in isopropanol, 273.15 K	0.0076
in isopropanol, 279.15 K	0.00834
in isopropanol, 283.85 K	0.00964
in isopropanol, 289.15 K	0.0119
in isopropanol, 293.75 K	0.0141
in isopropanol, 299.15 K	0.0172
in isopropanol, 303.75 K	0.0213
in isopropanol, 309.15 K	0.0261
in isopropanol, 313.35 K	0.0305
in isopropanol, 319.15 K	0.0371
in isopropanol, 324.45 K	0.0444
in methanol, 273.15 K	0.0295
in methanol, 279.15 K	0.0325
in methanol, 283.45 K	0.0357
in methanol, 288.95 K	0.041
in methanol, 293.25 K	0.046
in methanol, 298.85 K	0.0536
in methanol, 303.15 K	0.061
in methanol, 308.15 K	0.0699
in methanol, 313.15 K	0.0808
in methanol, 317.65 K	0.0923
in methanol, 323.15 K	0.107
in methyl acetate, 273.15 K	0.0423
in methyl acetate, 279.15 K	0.0467
in methyl acetate, 283.45 K	0.0503
in methyl acetate, 288.95 K	0.0556
in methyl acetate, 293.25 K	0.0606
in methyl acetate, 298.85 K	0.0677
in methyl acetate, 303.15 K	0.0743
in methyl acetate, 308.15 K	0.0823
in methyl acetate, 313.15 K	0.0915
in methyl acetate, 317.65 K	0.101
in methyl acetate, 323.15 K	0.113
in n-butanol, 273.15 K	0.00578
in n-butanol, 279.15 K	0.00679
in n-butanol, 283.85 K	0.00798
in n-butanol, 289.15 K	0.00946
in n-butanol, 293.75 K	0.011
in n-butanol, 299.15 K	0.0135
in n-butanol, 303.75 K	0.016
in n-butanol, 309.15 K	0.0195
in n-butanol, 313.35 K	0.0226
in n-butanol, 319.15 K	0.0276
in n-butanol, 324.45 K	0.0323
in n-pentanol, 273.15 K	0.00474
in n-pentanol, 279.15 K	0.00538
in n-pentanol, 283.85 K	0.00616
in n-pentanol, 289.15 K	0.00727
in n-pentanol, 293.75 K	0.00894
in n-pentanol, 299.15 K	0.0111
in n-pentanol, 303.75 K	0.0131
in n-pentanol, 309.15 K	0.0164
in n-pentanol, 313.35 K	0.0188
in n-pentanol, 319.15 K	0.0232
in n-pentanol, 324.45 K	0.0278
in n-propanol, 273.15 K	0.00806
in n-propanol, 279.15 K	0.00907
in n-propanol, 283.85 K	0.0103
in n-propanol, 289.15 K	0.0122
in n-propanol, 293.75 K	0.0143
in n-propanol, 299.15 K	0.0175
in n-propanol, 303.75 K	0.0208
in n-propanol, 309.15 K	0.0254
in n-propanol, 313.35 K	0.0293
in n-propanol, 319.15 K	0.036
in n-propanol, 324.45 K	0.0423

Reference: BigSolDB 2.1
